Assay results reported in US10538555B2, “Macrocyclic inhibitors of the PD-1/PD-L1 and CD80(B7-1)/PD-L1 protein/protein interactions” (BRISTOL-MYERS SQUIBB COMPANY, priority 2014, dated 2020).
pIC50: −log10 of the molar value. Where a SMILES comes first, the peptide text is derived from it. Bridges are numbered along the chain shown (N, C = ends). [ ]: non-standard residue; d: D form. ξ: configuration not given here. Phe(4-F) = N[C@@H](Cc1ccc(F)cc1)C(=O)O; NMeIle(3ξ) = CCC(C)[C@H](NC)C(=O)O; NMeF = CN[C@@H](Cc1ccccc1)C(=O)O; NMeL = CN[C@@H](CC(C)C)C(=O)O; NMeNle = CCCC[C@H](NC)C(=O)O; NMeV = CN[C@H](C(=O)O)C(C)C; dPip = O=C(O)[C@H]1CCCCN1; Orn = NCCC[C@H](N)C(=O)O

Target: T1, Human PD-L1/PD-1 (Homo sapiens, UniProt Q9NZQ7)
T1 construct: TVMV protease cleavage site (C); made in house; host or cells: HEK293T cells
Experiment: HTRF Human PD-L1/PD-1 binding assay (PD-1-Ig/PD-L1-His)
Conditions: PD-L1-His 10 nM, PD-1-Ig 20 nM; class symbol; read-out: HTRF Human PD-L1/PD-1 Binding Assay IC50 Range
Method in brief: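 Inhibitors were preincubated 15 min with human PD-L1(18-239)-His (10 nM final), then PD-1(25-167)-Ig (20 nM final) was added for 15 min in dPBS/0.1% BSA/0.05% Tween-20. Eu-cryptate anti-Ig (1 nM) and APC anti-His (20 nM) were added; 665/620 nm ratio read after 30 min.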

T1 sequence (Q9NZQ7 with tags, fused parts or gaps): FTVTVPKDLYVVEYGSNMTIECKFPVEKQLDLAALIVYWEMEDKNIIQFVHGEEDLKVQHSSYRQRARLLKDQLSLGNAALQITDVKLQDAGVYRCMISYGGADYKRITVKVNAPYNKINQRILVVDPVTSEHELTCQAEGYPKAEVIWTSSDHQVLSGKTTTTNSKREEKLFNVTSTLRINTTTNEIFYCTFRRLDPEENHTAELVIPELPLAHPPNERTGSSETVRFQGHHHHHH

| SMILES | pIC50 |
| --- | --- |
| CCCC[C@H]1C(=O)N2CCC[C@@H]2C(=O)N[C@@H](CC(=O)O)C(=O)N[C@@H](C(C)C)C(=O)N(C)[C@@H](C(C)C)C(=O)N[C@@H](CCC(N)=O)C(=O)N2CCCC[C@@H]2C(=O)N[C@@H](Cc2c[nH]c3ccccc23)C(=O)N[C@@H](Cc2ccc(O)cc2)C(=O)N[C@@H](CC(C)C)C(=O)N[C@H](C(=O)NCC(N)=O)CSCC(=O)N[C@@H](Cc2ccc(F)cc2)C(=O)N(C)[C@@H](Cc2ccccc2)C(=O)N1C [Example 9246] ({CH2CO}-[Phe(4-F)][NMeF][NMeNle][dP]DV[NMeV]Q[dPip]WYLCG-NH2; thioether N-13) | 5.00 to 6.00 |
| CCCC[C@H]1C(=O)N2CCC[C@@H]2C(=O)N[C@@H](CC(=O)O)C(=O)N[C@@H](C(C)C)C(=O)N(C)[C@@H](C(C)C)C(=O)N[C@@H](CCC(N)=O)C(=O)N2CCC[C@@H]2C(=O)N[C@@H](Cc2c[nH]c3ccccc23)C(=O)N[C@@H](Cc2ccc(O)cc2)C(=O)N[C@@H](CCCN)C(=O)N[C@H](C(=O)NCC(N)=O)CSCC(=O)N[C@@H](Cc2ccc(F)cc2)C(=O)N(C)[C@@H](Cc2ccccc2)C(=O)N1C [Example 9247] ({CH2CO}-[Phe(4-F)][NMeF][NMeNle][dP]DV[NMeV]Q[dP]WY[Orn]CG-NH2; thioether N-13) | 5.00 to 6.00 |
| CCCC[C@H]1C(=O)N2CCC[C@@H]2C(=O)N[C@@H](CC(=O)O)C(=O)N[C@@H](C(C)C)C(=O)N(C)[C@@H](C(C)C)C(=O)N[C@@H](CCC(N)=O)C(=O)N2CCCC[C@@H]2C(=O)N[C@@H](Cc2c[nH]c3ccccc23)C(=O)N[C@@H](Cc2ccc(O)cc2)C(=O)N[C@@H](CCCN)C(=O)N[C@H](C(=O)NCC(N)=O)CSCC(=O)N[C@@H](Cc2ccc(F)cc2)C(=O)N(C)[C@@H](Cc2ccccc2)C(=O)N1C [Example 9248] ({CH2CO}-[Phe(4-F)][NMeF][NMeNle][dP]DV[NMeV]Q[dPip]WY[Orn]CG-NH2; thioether N-13) | 5.00 to 6.00 |
| CCCC[C@H]1C(=O)N2CCC[C@@H]2C(=O)N[C@@H](CC(=O)O)C(=O)N[C@@H](C(C)C)C(=O)N(C)[C@@H](CC(C)C)C(=O)N[C@@H](Cc2ccc(O)cc2)C(=O)N2CCC[C@@H]2C(=O)N[C@@H](Cc2c[nH]c3ccccc23)C(=O)N[C@@H](Cc2ccc(O)cc2)C(=O)N[C@@H](CC(C)C)C(=O)N[C@H](C(=O)NCC(N)=O)CSCC(=O)N[C@@H](Cc2ccc(F)cc2)C(=O)N(C)[C@@H](Cc2ccccc2)C(=O)N1C [Example 9249] ({CH2CO}-[Phe(4-F)][NMeF][NMeNle][dP]DV[NMeL]Y[dP]WYLCG-NH2; thioether N-13) | 6.00 to 7.00 |
| CCCC[C@H]1C(=O)N2CCC[C@@H]2C(=O)N[C@@H](CC(=O)O)C(=O)N[C@@H](C(C)C)C(=O)N(C)[C@@H](CC(C)C)C(=O)N[C@@H](Cc2ccc(O)cc2)C(=O)N2CCCC[C@@H]2C(=O)N[C@@H](Cc2c[nH]c3ccccc23)C(=O)N[C@@H](Cc2ccc(O)cc2)C(=O)N[C@@H](CC(C)C)C(=O)N[C@H](C(=O)NCC(N)=O)CSCC(=O)N[C@@H](Cc2ccc(F)cc2)C(=O)N(C)[C@@H](Cc2ccccc2)C(=O)N1C [Example 9250] ({CH2CO}-[Phe(4-F)][NMeF][NMeNle][dP]DV[NMeL]Y[dPip]WYLCG-NH2; thioether N-13) | 5.00 to 6.00 |
| CCCC[C@H]1C(=O)N2CCC[C@@H]2C(=O)N[C@@H](CC(=O)O)C(=O)N[C@@H](C(C)C)C(=O)N(C)[C@@H](CC(C)C)C(=O)N[C@@H](Cc2ccc(O)cc2)C(=O)N2CCC[C@@H]2C(=O)N[C@@H](Cc2c[nH]c3ccccc23)C(=O)N[C@@H](Cc2ccc(O)cc2)C(=O)N[C@@H](CCCN)C(=O)N[C@H](C(=O)NCC(N)=O)CSCC(=O)N[C@@H](Cc2ccc(F)cc2)C(=O)N(C)[C@@H](Cc2ccccc2)C(=O)N1C [Example 9251] ({CH2CO}-[Phe(4-F)][NMeF][NMeNle][dP]DV[NMeL]Y[dP]WY[Orn]CG-NH2; thioether N-13) | 6.00 to 7.00 |
| CCCC[C@H]1C(=O)N2CCC[C@@H]2C(=O)N[C@@H](CC(=O)O)C(=O)N[C@@H](C(C)C)C(=O)N(C)[C@@H](CC(C)C)C(=O)N[C@@H](CCC(N)=O)C(=O)N2CCC[C@@H]2C(=O)N[C@@H](Cc2c[nH]c3ccccc23)C(=O)N[C@@H](Cc2ccc(O)cc2)C(=O)N[C@@H](CC(C)C)C(=O)N[C@H](C(=O)NCC(N)=O)CSCC(=O)N[C@@H](Cc2ccc(F)cc2)C(=O)N(C)[C@@H](Cc2ccccc2)C(=O)N1C [Example 9253] ({CH2CO}-[Phe(4-F)][NMeF][NMeNle][dP]DV[NMeL]Q[dP]WYLCG-NH2; thioether N-13) | 5.00 to 6.00 |

Further lines, results first:

| pIC50 | SMILES |
| --- | --- |
| 5.00 to 6.00 | CCCC[C@H]1C(=O)N2CCC[C@@H]2C(=O)N[C@@H](CC(=O)O)C(=O)N[C@@H](C(C)C)C(=O)N(C)[C@@H](CC(C)C)C(=O)N[C@@H](CCC(N)=O)C(=O)N2CCCC[C@@H]2C(=O)N[C@@H](Cc2c[nH]c3ccccc23)C(=O)N[C@@H](Cc2ccc(O)cc2)C(=O)N[C@@H](CC(C)C)C(=O)N[C@H](C(=O)NCC(N)=O)CSCC(=O)N[C@@H](Cc2ccc(F)cc2)C(=O)N(C)[C@@H](Cc2ccccc2)C(=O)N1C [Example 9254] ({CH2CO}-[Phe(4-F)][NMeF][NMeNle][dP]DV[NMeL]Q[dPip]WYLCG-NH2; thioether N-13) |
| 5.00 to 6.00 | CCCC[C@H]1C(=O)N2CCC[C@@H]2C(=O)N[C@@H](CC(=O)O)C(=O)N[C@@H](C(C)C)C(=O)N(C)[C@@H](CC(C)C)C(=O)N[C@@H](CCC(N)=O)C(=O)N2CCC[C@@H]2C(=O)N[C@@H](Cc2c[nH]c3ccccc23)C(=O)N[C@@H](Cc2ccc(O)cc2)C(=O)N[C@@H](CCCN)C(=O)N[C@H](C(=O)NCC(N)=O)CSCC(=O)N[C@@H](Cc2ccc(F)cc2)C(=O)N(C)[C@@H](Cc2ccccc2)C(=O)N1C [Example 9255] ({CH2CO}-[Phe(4-F)][NMeF][NMeNle][dP]DV[NMeL]Q[dP]WY[Orn]CG-NH2; thioether N-13) |
| 5.00 to 6.00 | CCCC[C@H]1C(=O)N2CCC[C@@H]2C(=O)N[C@@H](CC(=O)O)C(=O)N[C@@H](C(C)C)C(=O)N(C)[C@@H](CC(C)C)C(=O)N[C@@H](CCC(N)=O)C(=O)N2CCCC[C@@H]2C(=O)N[C@@H](Cc2c[nH]c3ccccc23)C(=O)N[C@@H](Cc2ccc(O)cc2)C(=O)N[C@@H](CCCN)C(=O)N[C@H](C(=O)NCC(N)=O)CSCC(=O)N[C@@H](Cc2ccc(F)cc2)C(=O)N(C)[C@@H](Cc2ccccc2)C(=O)N1C [Example 9256] ({CH2CO}-[Phe(4-F)][NMeF][NMeNle][dP]DV[NMeL]Q[dPip]WY[Orn]CG-NH2; thioether N-13) |
| 5.00 to 6.00 | CCCC[C@H]1C(=O)N2CCC[C@@H]2C(=O)N[C@@H](CC(=O)O)C(=O)N[C@@H](C(C)C)C(=O)N(C)[C@@H](C(C)CC)C(=O)N[C@@H](Cc2ccc(O)cc2)C(=O)N2CCC[C@@H]2C(=O)N[C@@H](Cc2c[nH]c3ccccc23)C(=O)N[C@@H](Cc2ccc(O)cc2)C(=O)N[C@@H](CC(C)C)C(=O)N[C@H](C(=O)NCC(N)=O)CSCC(=O)N[C@@H](Cc2ccc(F)cc2)C(=O)N(C)[C@@H](Cc2ccccc2)C(=O)N1C (stereo partly drawn) [Example 9257] ({CH2CO}-[Phe(4-F)][NMeF][NMeNle][dP]DV[NMeIle(3ξ)]Y[dP]WYLCG-NH2; thioether N-13) |
| 5.00 to 6.00 | CCCC[C@H]1C(=O)N2CCC[C@@H]2C(=O)N[C@@H](CC(=O)O)C(=O)N[C@@H](C(C)C)C(=O)N(C)[C@@H](C(C)CC)C(=O)N[C@@H](Cc2ccc(O)cc2)C(=O)N2CCCC[C@@H]2C(=O)N[C@@H](Cc2c[nH]c3ccccc23)C(=O)N[C@@H](Cc2ccc(O)cc2)C(=O)N[C@@H](CCCN)C(=O)N[C@H](C(=O)NCC(N)=O)CSCC(=O)N[C@@H](Cc2ccc(F)cc2)C(=O)N(C)[C@@H](Cc2ccccc2)C(=O)N1C (stereo partly drawn) [Example 9259] ({CH2CO}-[Phe(4-F)][NMeF][NMeNle][dP]DV[NMeIle(3ξ)]Y[dPip]WY[Orn]CG-NH2; thioether N-13) |
| 5.00 to 6.00 | CCCC[C@H]1C(=O)N2CCC[C@@H]2C(=O)N[C@@H](CC(=O)O)C(=O)N[C@@H](C(C)C)C(=O)N(C)[C@@H](C(C)CC)C(=O)N[C@@H](CCC(N)=O)C(=O)N2CCC[C@@H]2C(=O)N[C@@H](Cc2c[nH]c3ccccc23)C(=O)N[C@@H](Cc2ccc(O)cc2)C(=O)N[C@@H](CC(C)C)C(=O)N[C@H](C(=O)NCC(N)=O)CSCC(=O)N[C@@H](Cc2ccc(F)cc2)C(=O)N(C)[C@@H](Cc2ccccc2)C(=O)N1C (stereo partly drawn) [Example 9260] ({CH2CO}-[Phe(4-F)][NMeF][NMeNle][dP]DV[NMeIle(3ξ)]Q[dP]WYLCG-NH2; thioether N-13) |
| 5.00 to 6.00 | CCCC[C@H]1C(=O)N2CCC[C@@H]2C(=O)N[C@@H](CC(=O)O)C(=O)N[C@@H](C(C)C)C(=O)N(C)[C@@H](C(C)CC)C(=O)N[C@@H](CCC(N)=O)C(=O)N2CCCC[C@@H]2C(=O)N[C@@H](Cc2c[nH]c3ccccc23)C(=O)N[C@@H](Cc2ccc(O)cc2)C(=O)N[C@@H](CC(C)C)C(=O)N[C@H](C(=O)NCC(N)=O)CSCC(=O)N[C@@H](Cc2ccc(F)cc2)C(=O)N(C)[C@@H](Cc2ccccc2)C(=O)N1C (stereo partly drawn) [Example 9261] ({CH2CO}-[Phe(4-F)][NMeF][NMeNle][dP]DV[NMeIle(3ξ)]Q[dPip]WYLCG-NH2; thioether N-13) |

Same assay, conditions: PD-L1-His 10 nM, PD-1-Ig 20 nM; read-out: HTRF Human PD-L1/PD-1 Binding Assay IC50

| pIC50 | SMILES |
| --- | --- |
| 5.14 | CCCC[C@H]1C(=O)N2CCC[C@@H]2C(=O)N[C@@H](CC(=O)O)C(=O)N[C@@H](C(C)C)C(=O)N(C)[C@@H](C(C)CC)C(=O)N[C@@H](Cc2ccc(O)cc2)C(=O)N2CCCC[C@@H]2C(=O)N[C@@H](Cc2c[nH]c3ccccc23)C(=O)N[C@@H](Cc2ccc(O)cc2)C(=O)N[C@@H](CC(C)C)C(=O)N[C@H](C(=O)NCC(N)=O)CSCC(=O)N[C@@H](Cc2ccc(F)cc2)C(=O)N(C)[C@@H](Cc2ccccc2)C(=O)N1C (stereo partly drawn) [Example 9258] ({CH2CO}-[Phe(4-F)][NMeF][NMeNle][dP]DV[NMeIle(3ξ)]Y[dPip]WYLCG-NH2; thioether N-13) |
